Source: US20030148267A1, “Screening assay for hepatitis C virus antiviral agents” (priority 2001, published 2003)
Several values for one entry are separate records, joined by “and”; a condition that tells them apart may be missing. Equal values may be shown once. Entries after “also recorded” stand apart in the source; their conditions may differ.

Assays:
HCV (−) RNA synthesis = assay: HCV (−) strand RNA synthesis in binary HCV expression system (RNase protection assay, strand-specific RT-PCR); type: cell-based, hepatitis C virus (genotype 1a, strain H77); details: for HCV (−) strand results with other timing of the drug: drug given 0 and 12 hours before vTF7-3 infection instead of 20 hours; for HCV replicative strand synthesis: the two RBV doses (50 and 400)
HCV RNA = HCV RNA quasispecies analysis (mutation rate) in transfected/infected CV-1 cells; type: cell-based, hepatitis C virus (genotype 1a, strain H77); parameters: nucleotide substitutions / substitutions / error generation / dN/dS (nonsynonymous/synonymous mutation): unit of the concentration uncertain
Method: Twenty-four hours post-vvT7, cells were lysed and RNA was extracted by TRIzol (GIBCO/BRL), DNase I-treated (Roche Molecular Biochemicals), and phenol-chloroform extracted.
RT-PCR was performed for the 5′UTR, core, E2-HVR1, NS5A and NS5B regions using region-specific primers: […]
RT was carried out on extracted RNA using AMV reverse transcriptase (Perkin-Elmer) using standard conditions. 25 cycles of PCR were carried out using 25 pmol each of the relevant sense and antisense primers, 0.5 mM of each dNTP, 1.5 mM MgCl2, and 0.5 units of Taq polymerase (Perkin-Elmer).
Amplicons were cloned using the TOPO-PCR system (Invitrogen). Between 11 and 20 individual transformants corresponding to each region were sequenced bidirectionally by the ABI Prism automated sequencer, using primers flanking the insert. Synonymous and non-synonymous substitutions at variance from the parent pT7flHCV-Rz and pT7HCVDBglII-Rz sequences were determined and error generation rates calculated as nucleotide substitutions/total nucleotides sequenced. Sequences were aligned, and quasispecies diversity rates were compared between groups by using the statistical package SPSS 9.0.

HSV-1 = HSV-1 plaque formation in CV-1 cells; type: cell-based; details: the two RBV doses (50 and 400); listed as RBV
[1] = RBV 50, E2 (HVR-1), listed as REV

Compound: NC12CC3CC(CC(C3)C1)C2 [amantadine]
- HCV (−) strand synthesis (HCV (−) RNA synthesis; doses 1-100 mg/well): no activity; also recorded: Neither ribavirin nor amantadine demonstrated direct activity
- HCV (−) strand results with other timing of the drug (HCV (−) RNA synthesis): unchanged

Compound: NC(=O)c1ncn([C@@H]2O[C@H](CO)[C@@H](O)[C@H]2O)n1 [ribavirin]
- error generation throughout the viral genome compared with the lower dose (HCV RNA; 400 mM vs 50 mM, differences not statistically significant): to a lesser degree than that observed at the lower dose
- nucleotide substitutions (HCV RNA; 50 (unit uncertain), HVR-1 region): 15
- substitutions (HCV RNA; 50 (unit uncertain), core region): 12
- error generation (HCV RNA; 400 (unit uncertain), across all regions): 0.6-1.2 ×10^−3
- Total Mutations (all regions) (HCV RNA; RBV 50): 54
- ERROR GEN RATE (HCV RNA; RBV 50, 5′UTR): 0.7 X 10^−3
- MUTANT CLONES (%) (HCV RNA; RBV 50, 5′UTR): 3(20%)
- NONSYN/SYN SUBS (HCV RNA; RBV 50, 5′UTR): 0/3
- Transition Mutations T to C (HCV RNA; RBV 50, 5′UTR): 2
- NONSYN/SYN SUBS (HCV RNA; RBV 50, CORE): 8/4
- Transition Mutations C to T (HCV RNA; RBV 50, CORE): 2
- Transition Mutations T to C (HCV RNA; RBV 50, CORE): 2
- insertions (resulting in stop codons) (HCV RNA; RBV 50, CORE): 2 insertions
- ERROR GEN RATE (HCV RNA; RBV 50, CORE, listed as RBV): 1.9^1 X 10^−3
- ERROR GEN RATE (HCV RNA; RBV 50, CORE, listed as REV): 1.9^2 X 10^−3
- MUTANT CLONES (%) (HCV RNA; RBV 50, CORE, listed as REV): 7(50%)
- nt-insertions (HCV RNA; RBV 50, CORE, listed as REV): 4 nt-insertions
- NONSYN/SYN SUBS (HCV RNA; RBV 50, E2): 11/4
- Transition Mutations A to G (HCV RNA; RBV 50, E2): 4
- Transition Mutations C to T (HCV RNA; RBV 50, E2): 1
- Transition Mutations G to A (HCV RNA; RBV 50, E2): 1
- Transition Mutations T to C (HCV RNA; RBV 50, E2): 6
- insertions (resulting in stop codons) (HCV RNA; RBV 50, E2): 2 insertions
- ERROR GEN RATE (HCV RNA; RBV 50, E2 (HVR-1), listed as RBV): 1.7 X 10^−3 and 1.5^2 X 10^−3
- ERROR GEN RATE (HCV RNA; [1]): 1.5 X 10^−3
- MUTANT CLONES (%) (HCV RNA; [1]): 12(60%)
- nt-deletion (HCV RNA; [1]): 1 nt-deletion
- nt-insertion (HCV RNA; [1]): 1 nt-insertion
- ERROR GEN RATE (HCV RNA; RBV 50, NS5A): 2.5^3 X 10^−3
- MUTANT CLONES (%) (HCV RNA; RBV 50, NS5A): 5(20%)
- NONSYN/SYN SUBS (HCV RNA; RBV 50, NS5A): 12/0
- Transition Mutations A to G (HCV RNA; RBV 50, NS5A): 1
- Transition Mutations C to T (HCV RNA; RBV 50, NS5A): 1
- ERROR GEN RATE (HCV RNA; RBV 50, NS5B): 1.7 X 10^−3
- Transition Mutations A to G (HCV RNA; RBV 50, NS5B): 2
- Transition Mutations C to T (HCV RNA; RBV 50, NS5B): 1
- Transition Mutations G to A (HCV RNA; RBV 50, NS5B): 4
- MUTANT CLONES (%) (HCV RNA; RBV 50, NS5B, listed as RBV): 7(39%)
- NONSYN/SYN SUBS (HCV RNA; RBV 50, NS5B, listed as RBV): 9/3
- NONSYN/SYN SUBS (HCV RNA; RBV 50, NS5B, listed as REV): 9/4
- MUTANT CLONES (%) (HCV RNA; RBV 50, all regions): 29(33%)
- Non-Syn/Syn Substitutions (HCV RNA; RBV 50, all regions): 40/14
- dose-responsiveness of mutations (HCV RNA; RBV 50 vs 400): not a demonstrable dose-responsiveness
- Total Mutations (all regions) (HCV RNA; RBV 400): 31
- ERROR GEN RATE (HCV RNA; RBV 400, 5′UTR): 0.7 X 10^−3
- MUTANT CLONES (%) (HCV RNA; RBV 400, 5′UTR): 3(21%)
- NONSYN/SYN SUBS (HCV RNA; RBV 400, 5′UTR): 0/3
- Transition Mutations A to G (HCV RNA; RBV 400, 5′UTR): 1
- Transition Mutations G to A (HCV RNA; RBV 400, 5′UTR): 1
- MUTANT CLONES (%) (HCV RNA; RBV 400, CORE): 4(20%)
- NONSYN/SYN SUBS (HCV RNA; RBV 400, CORE): 5/1
- Transition Mutations A to G (HCV RNA; RBV 400, CORE): 1
- Transition Mutations C to T (HCV RNA; RBV 400, CORE): 2
- Transition Mutations G to A (HCV RNA; RBV 400, CORE): 1
- Transition Mutations T to C (HCV RNA; RBV 400, CORE): 1
- ERROR GEN RATE (HCV RNA; RBV 400, CORE, listed as RBV): 0.6^4 X 10^−3 and 0.6 X 10^−3
- MUTANT CLONES (%) (HCV RNA; RBV 400, E2): 7(35%)
- Transition Mutations A to G (HCV RNA; RBV 400, E2): 3
- Transition Mutations C to T (HCV RNA; RBV 400, E2): 2
- Transition Mutations G to A (HCV RNA; RBV 400, E2): 1
- Transition Mutations T to C (HCV RNA; RBV 400, E2): 1
- insertions (HCV RNA; RBV 400, E2): 2 insertions
- ERROR GEN RATE (HCV RNA; RBV 400, E2, listed as RBV): 1.2 X 10^−3 and 1.2^4 X 10^−3
- NONSYN/SYN SUBS (HCV RNA; RBV 400, E2, listed as RBV): 9/4 and 7/5
- ERROR GEN RATE (HCV RNA; RBV 400, NS5A): 0.9 X 10^−3
- MUTANT CLONES (%) (HCV RNA; RBV 400, NS5A): 2(14%)
- NONSYN/SYN SUBS (HCV RNA; RBV 400, NS5A): 3/0
- ERROR GEN RATE (HCV RNA; RBV 400, NS5B): 1 X 10^−3
- MUTANT CLONES (%) (HCV RNA; RBV 400, NS5B): 6(35%)
- NONSYN/SYN SUBS (HCV RNA; RBV 400, NS5B): 5/2
- Transition Mutations A to G (HCV RNA; RBV 400, NS5B): 2
- Transition Mutations G to A (HCV RNA; RBV 400, NS5B): 1
- Transition Mutations T to C (HCV RNA; RBV 400, NS5B): 2
- MUTANT CLONES (%) (HCV RNA; RBV 400, all regions): 25(30%)
- Non-Syn/Syn Substitutions (HCV RNA; RBV 400, all regions): 20/11
- induction of mutations / error generation in the HCV genome (HCV RNA; RBV, all regions tested, listed as RBV): induces mutations across all regions; also recorded: increases error generation
- dN/dS (nonsynonymous/synonymous mutation) (HCV RNA; ribavirin at 50 (unit uncertain), all regions tested): 2.85
- additional RNA inhibitory effects (HCV (−) RNA synthesis; RBV added to IFN): not seen
- HCV (−) RNA synthesis (HCV (−) RNA synthesis; doses of 10-200 mg/well): No inhibitory effect; also recorded: Neither ribavirin nor amantadine demonstrated direct activity
- HCV (−) strand results with other timing of the drug (HCV (−) RNA synthesis): unchanged
- HCV replicative strand synthesis (HCV (−) RNA synthesis): no effect
- HCV replicative strand synthesis (HCV (−) RNA synthesis; listed as RBV): no direct decrease
- HSV-1 plaque formation in CV-1 cells (HSV-1): activity against HSV-1

Compound: interferon-α-2b
- Total Mutations (all regions) (HCV RNA; IFN 100,000): 30
- MUTANT CLONES (%) (HCV RNA; IFN 100,000, all regions): 19(30%)
- Non-Syn/Syn Substitutions (HCV RNA; IFN 100,000, all regions): 20/10
- 5′ UTR sequences (HCV RNA; IFN 100,000 U): remained invariant
- ERROR GEN RATE (HCV RNA; IFN 100,000U, 5′UTR): 0 X 10^−3
- MUTANT CLONES (%) (HCV RNA; IFN 100,000U, 5′UTR): 0
- NONSYN/SYN SUBS (HCV RNA; IFN 100,000U, 5′UTR): 0
- MUTANT CLONES (%) (HCV RNA; IFN 100,000U, CORE): 4(36%)
- NONSYN/SYN SUBS (HCV RNA; IFN 100,000U, CORE): 2/2
- Transition Mutations T to C (HCV RNA; IFN 100,000U, CORE): 2
- ERROR GEN RATE (HCV RNA; IFN 100,000U, CORE, listed as IFN): 0.8^5 X 10^−3 and 0.8 X 10^−3
- ERROR GEN RATE (HCV RNA; IFN 100,000U, E2): 2.8^6 X 10^−3
- MUTANT CLONES (%) (HCV RNA; IFN 100,000U, E2): 10(83%)
- NONSYN/SYN SUBS (HCV RNA; IFN 100,000U, E2): 10/6
- Transition Mutations A to G (HCV RNA; IFN 100,000U, E2): 4
- Transition Mutations C to T (HCV RNA; IFN 100,000U, E2): 2
- Transition Mutations T to C (HCV RNA; IFN 100,000U, E2): 9
- stop codon (HCV RNA; IFN 100,000U, E2): 1
- ERROR GEN RATE (HCV RNA; IFN 100,000U, NS5A): 1.4 X 10^−3
- MUTANT CLONES (%) (HCV RNA; IFN 100,000U, NS5A): 3(16%)
- NONSYN/SYN SUBS (HCV RNA; IFN 100,000U, NS5A): 5/1
- Transition Mutations A to G (HCV RNA; IFN 100,000U, NS5A): 1
- Transition Mutations C to A (HCV RNA; IFN 100,000U, NS5A): 2
- Transition Mutations T to C (HCV RNA; IFN 100,000U, NS5A): 1
- ERROR GEN RATE (HCV RNA; IFN 100,000U, NS5B): 0.9 X 10^−3
- MUTANT CLONES (%) (HCV RNA; IFN 100,000U, NS5B): 2(18%)
- NONSYN/SYN SUBS (HCV RNA; IFN 100,000U, NS5B): 3/1
- dN/dS (nonsynonymous/synonymous mutation) (HCV RNA; IFN-α, all regions tested): 2.0
- HCV (−) RNA synthesis (HCV (−) RNA synthesis; doses from 2000 to 15,000 units/well, CV-1 cells): dose-dependent inhibition
- HCV core protein synthesis (HCV core protein): dose-responsive inhibition
